The source of these data is ChEMBL document CHEMBL1201862, “PubChem BioAssay data set” (2004).

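Step 1: Grow cells in 96-well plates. Step 2: Expose to compound for 48 hours at 5 concentrations. Step 3: Interpolate endpoints linearly; if unreached, use highest concentration. Here, GI50 denotes the concentration required for 50% inhibition of growth.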 Calls of active or inactive are those of the source. Rule as the data show it: active = GI50 up to about 1.1 µM and inactive = higher.

Among the test systems are A498; A549; DU-145; HCT-116; HL-60; HOP-62; HT-29; IGROV-1; LOX IMVI; M14; MOLT-4; NCI/ADR-RES; OVCAR-3; OVCAR-8; PC-3; SK-MEL-2; SW-620; T47D; UACC-257; UO-31.
Test in all cases: NCI anticancer screen, dose series, 48 h

Take `O=C1CN2CCN(CC2)CC(=O)Nc2ccc(cc2)S(=O)(=O)c2ccc(cc2)NC(=O)CN2CCN(CC2)CC(=O)Nc2ccc(cc2)S(=O)(=O)c2ccc(cc2)N1`: the GI50 with A498 was > 100 µM (inactive); in the experiment on A549 it was > 63.2 µM (inactive); with DU-145 it was 51.6 µM (inactive); in the experiment on HCT-116, 14.8 µM (inactive); with HL-60 it was 0.557 µM (active); with HOP-62, 44.4 µM (inactive). The GI50 with HT-29 is 15 µM (inactive); in the experiment on IGROV-1, 13.8 µM (inactive); with LOX IMVI, 11 µM (inactive); with M14, 25.4 µM (inactive); in the experiment on MOLT-4 it was 6.81 µM (inactive); with NCI/ADR-RES it was 37.3 µM (inactive). For the same compound, the GI50 with OVCAR-3 is 27.9 µM (inactive); with OVCAR-8, 38.8 µM (inactive); in the experiment on PC-3, > 100 µM (inactive); in the experiment on SK-MEL-2 it was > 71.1 µM (inactive); with SW-620, 14.1 µM (inactive); with T47D, 67.6 µM (inactive). Further, the results for the GI50 with UACC-257 and with UO-31 were > 100 µM (inactive) and > 92.5 µM (inactive), respectively.

Regarding `O=C(O)CCC(NC(=O)c1ccc(Nc2cnc3ccc(C(F)(F)F)cc3n2)cc1)C(=O)O` (stereo not given), the GI50 in the experiment on A498, with A549, with DU-145, in the experiment with HCT-116, with HL-60 and in the experiment with HOP-62 was > 100 µM (inactive) each time. The GI50 in the experiment on HT-29, in the experiment on IGROV-1, in the experiment on LOX IMVI, with M14, in the experiment on MOLT-4 and in the experiment with NCI/ADR-RES was > 100 µM (inactive) each time. In addition, the GI50 in the experiment with OVCAR-3, in the experiment on OVCAR-8, with PC-3, in the experiment on SK-MEL-2, with SW-620 and in the experiment with T47D was > 100 µM (inactive) throughout. For the same compound, the GI50 in the experiment with UACC-257 and in the experiment with UO-31 was > 100 µM (inactive) each time.

With `Cn1cc(C[C@@H](N)C(=O)O)c2ccccc21` [INDOXIMOD], the GI50 in the experiment with A498, in the experiment with A549, in the experiment with DU-145, in the experiment with HCT-116, in the experiment on HL-60 and in the experiment on HOP-62 was > 100 µM (inactive) in each case. For the same compound, the GI50 with HT-29, in the experiment on IGROV-1, with LOX IMVI, in the experiment with M14, in the experiment with MOLT-4 and with NCI/ADR-RES was > 100 µM (inactive) each time. In addition, the GI50 in the experiment on OVCAR-3, in the experiment on OVCAR-8, with PC-3, in the experiment with SK-MEL-2, in the experiment with SW-620 and with T47D was > 100 µM (inactive) in each case. Besides, the GI50 in the experiment on UACC-257 and in the experiment on UO-31 was > 100 µM (inactive) throughout.
